According to US12122760B2, “Compound, composition, and use thereof in preparation of drug” (CHANGSHA ZEDA MEDICAL TECH. CO., LTD, priority 2019, dated 2024):

What was measured:
Format in all cases: cell-based
MDA-MB-453 TNBC cells = experiment: Cell proliferation of MDA-MB-453 (CCK8 cell viability); conditions: 72 h
Procedure: 8000 MDA-MB-453 cells were plated in each well of a 96-well plate and incubated for 48 hours. Then cells were treated with increasing concentrations of Zeta55, MDV3100 or SAHA for 72 h, At last, cell viability was measured using a CCK8 Assay kit.

androgen receptor (AR) = target: T1, androgen receptor (AR) (Homo sapiens, UniProt P10275); experiment: Luciferase reporter gene experiment (MMTV-LUC + pSV-AR in 293T cells); conditions: 10 nM DHT, FIG. 2
T1 construct: expressed in transfected cells; host or cells: 293T cells
T1 sequence (P10275 1-920): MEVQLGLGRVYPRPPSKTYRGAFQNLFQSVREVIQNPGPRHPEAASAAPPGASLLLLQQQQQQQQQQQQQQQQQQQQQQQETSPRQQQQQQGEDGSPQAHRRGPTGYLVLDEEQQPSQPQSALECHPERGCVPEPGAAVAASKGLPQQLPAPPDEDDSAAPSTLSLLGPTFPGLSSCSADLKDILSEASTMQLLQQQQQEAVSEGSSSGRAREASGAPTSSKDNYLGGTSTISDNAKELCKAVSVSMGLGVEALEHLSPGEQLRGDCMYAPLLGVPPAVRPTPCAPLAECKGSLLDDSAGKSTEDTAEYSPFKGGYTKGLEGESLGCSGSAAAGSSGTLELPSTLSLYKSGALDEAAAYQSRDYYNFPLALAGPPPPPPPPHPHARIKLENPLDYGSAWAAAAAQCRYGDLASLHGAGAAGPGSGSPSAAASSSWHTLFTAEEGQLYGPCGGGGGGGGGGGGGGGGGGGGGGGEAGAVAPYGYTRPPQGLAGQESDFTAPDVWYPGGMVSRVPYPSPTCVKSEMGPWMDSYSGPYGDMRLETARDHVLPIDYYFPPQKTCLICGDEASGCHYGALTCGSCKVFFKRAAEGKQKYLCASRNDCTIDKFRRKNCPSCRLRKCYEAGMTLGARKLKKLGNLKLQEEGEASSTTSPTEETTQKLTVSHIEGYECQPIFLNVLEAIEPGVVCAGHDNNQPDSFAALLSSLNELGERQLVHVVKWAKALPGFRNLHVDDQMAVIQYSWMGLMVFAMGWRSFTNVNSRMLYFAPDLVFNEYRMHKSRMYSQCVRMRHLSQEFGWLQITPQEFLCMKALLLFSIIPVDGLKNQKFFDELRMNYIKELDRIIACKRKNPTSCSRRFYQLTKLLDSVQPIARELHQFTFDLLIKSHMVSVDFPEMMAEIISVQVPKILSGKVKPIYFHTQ
Procedure: 293T cells are cultured in a 96-well plate. AR plasmids and luciferase genes with AR target promoters are co-transfected in the 293T cells. AR activates the target promoters to express luciferase, and the expression level of the luciferase is directly proportional to AR activation. Adding DHT to the cells can activate AR and express the luciferase, thus enhancing fluorescence signal detection. By detecting the fluorescent signal, it can be examined whether an added drug has AR antagonist activity.
The luciferase reporter gene plasmid MMTV-LUC containing the androgen receptor (AR) target promoters and the plasmid pSV-AR expressing the androgen receptor (AR) are constructed. The 293T cells are inoculated in a 96-well plate, wherein each well containing 1×10^4 cells. The cells are incubated overnight to stick to the wall. On the second day, Lipofectamine® 3000 (Life technologies, USA) is used to transfect the plasmid into the cells. Each well is added with 180 ng of MMTV-LUC plasmid and 20 ng of pSV-AR plasmid. On the third day, each well is added with 10 nM of the DHT and the drugs of different concentrations of 1 nM, 10 nM, 100 nM, 1 uM, 10 uM, 25 uM, 50 uM respectively. The control is 10 nM of the DHT. On the fifth day, a luciferase reporter gene detection kit (Biyuntian company, China) is used to process the cells. 100 uL of cell lysate is added to the 96-well plate, and lyse for 20 min. Then centrifuging is performed at 4 degrees and 10000 g for 3 min. 50 uL of supernatant is taken and 100 uL of a luciferase detection reagent is added. After mixing, chemiluminescence is immediately detected on the multi-functional microplate reader. Graphpad Prism software is used to draw a curve by using the drug concentration as an abscissa and using drug fluorescence value/positive control fluorescence value as an ordinate. Herein MDV3100 is the positive control.

[1] = system: AR protein in MDA-MB-453 TNBC cells; experiment: AR protein Western blot in MDA-MB-453 cells; conditions: 48 h, FIG. 8
Procedure: MDA-MB-453 cells treated with Zeta55 or Tubastatin A at indicated concentrations for 48 h were harvested and lysed in ice-cold RIPA buffer with protease inhibitor Cocktail. After quantification by BCA, protein (30-50 μg) were separated with 10% SDS-PAGE gels and transferred onto polyvinylidene difluoride (PVDF) membranes. The following antibodies were used in this study: AR(CST,1:1000),α-tubulin(CST,1:1000), Ac-α-tubulin(CST,1:1000). Secondary antibodies: HRP-conjugated anti-mouse IgG and anti-rabbit IgG (Proteintech, 1:5000).

VCaP cells = experiment: Inhibiting effect on VCaP cell proliferation (MTS); conditions: 4 days treatment, FIG. 6
Procedure: Androgen-sensitive prostate cancer cell (VCaP cells) are cultured in a 96-well plate. The VCaP cells are able to proliferate in a medium supplemented with 10 nM of the DHT. After treating the cells with the drugs for 4 days, we measure the effects of the drugs on the proliferation of the prostate cancer cells.
The VCaP cells are cultured by using 5% CSS and 1640 medium without phenol red, and inoculated in the 96-well plate. 1×10^4 cells are added to each well, and incubated overnight to make the cells stick to a wall. Different concentrations of the drugs are added on the second day. After treating the cells with the drugs for 4 days, cell viability is measured by the MTS kit (Promega, USA). To each well, 10% of an MTS reagent is added, and incubation continued for 2 hours. The absorbance value at […] is then measured by the multi-functional microplate reader. The Graphpad Prism software is used to draw a curve by using the drug concentration as an abscissa and using the absorbance value of the drug treatment/the absorbance value of the blank treatment cell as an ordinate.

## N#Cc1ccc(N2C(=O)C3(CCC3)N(c3ccc(C(=O)NO)c(F)c3)C2=S)cc1C(F)(F)F [Zeta 55, 4-(7-(4-cyano-3-(trifluoromethyl)phenyl)-8-oxo-6-thio-5,7-diazaspiro[3.4]octane-5-yl)-2-fluoro-N-hydroxybenzamide]
MDA-MB-453 TNBC cells; CCK8, FIG. 9
  potency relative to MDV3100: about 1.5 times
MDA-MB-453 TNBC cells; Homo sapiens, CCK8, FIG. 9, read-out: IC50 of dose-dependent killing of the cells
  IC50: 11.1 µM
Androgen receptor (AR)
  antagonist effect on the AR, antagonistic ability from high to low: Zeta32>Zeta55>Zeta34>Zeta57>Zeta33
[1]
  reduction of AR protein: significant dose-dependent reduction of AR protein
VCaP cells
  inhibitory effect on the VCap cell proliferation, from high to low: Zeta55>Zeta32>Zeta33>Zeta34>Zeta57
VCaP cells; VCaP cells
  cell proliferation inhibitory effect compared with positive control drug MDV3100: better than that of the positive control drug MDV3100
